Assay results reported in patent US20210308089A1, “METHODS OF TREATING AND/OR PREVENTING VIRAL INFECTIONS AND/OR DISEASES CAUSED BY VIRUSES IN A SUBJECT IN NEED THEREOF” (priority 2020, published 2021).

Test system: patients of the REDUCE-IT and earlier EPA placebo-controlled trials
Experiment: Example 3: adverse events by risk ratio, icosapent ethyl vs placebo (candidate categories; infectious disease terms of interest)
Details: for ARR / NNT / Risk Ratio (95% CI) / AR: Cough (AE table) / ARR: Cough (AE table) / NNT: Cough (AE table) / Risk Ratio (95% CI): Cough (AE table): R-I
[1] = Cognitive Decline: Attention disorders and disturbances
[2] = Cognitive Decline: Cognitive and attention disorders and disturbances
[3] = Depression: Depressed mood disorders and disturbances
[4] = Depression: Depressive disorders
[5] = Depression: Depressive disorders - Depression
[6] = Depression: Depressive disorders - Major depression
[7] = Depression: Depressive disorders - Persistent depressive disorder
[8] = Depression: Depressive disorders- Agitated depression
[9] = Depression: Mood alterations - Depressed mood
[10] = Depression: Mood alterations - Depressive symptom
[11] = Depression: Mood alterations with depressive symptoms
[12] = Glomerulonephritis and Nephrotic Syndrome
[13] = Limb Fractures and Dislocations
[14] = NASH+Hepatic Steatosis for NFS >0.675
[15] = Psychosis: Psychotic disorder NEC
[16] = Squamous Cell Carcinoma of Head and Neck
[17] = Systemic Inflammatory Response Syndrome
[18] = first of three Cough lines of Table 46
[19] = second of three Cough lines of Table 46

**Q.** Which results are given for CC/C=C\C/C=C\C/C=C\C/C=C\C/C=C\CCCC(=O)OCC [icosapent ethyl, eicosapentaenoic acid ethyl ester]?
**A.** ARR (Bipolar Disease): −0.0%; NNT (Bipolar Disease): 2045; Risk Ratio (95% CI) (Bipolar Disease): 0.333 (0.035 to 3.204) 4; ARR (Blood CPK increased): −0.6%; NNT (Blood CPK increased): 164; Risk Ratio (95% CI) (Blood CPK increased): 0.684 (0.485 to 0.964) 2; ARR (Bone Fractures): 0.0%; NNT (Bone Fractures): −4088; Risk Ratio (95% CI) (Bone Fractures): 2.000 (0.181 to 22.053) −3; ARR (Breast Cancer): 0.0%; NNT (Breast Cancer): −2389144; Risk Ratio (95% CI) (Breast Cancer): 1.000 (0.351 to 2.849) −1; ARR (CKD): 0.1%; NNT (CKD): −680; Risk Ratio (95% CI) (CKD): 1.123 (0.766 to 1.646) −1; ARR (COPD): 0.2%; NNT (COPD): −453; Risk Ratio (95% CI) (COPD): 1.084 (0.837 to 1.405) −1; ARR (Chrohn's Disease): −0.0%; NNT (Chrohn's Disease): 2045; Risk Ratio (95% CI) (Chrohn's Disease): 0.333 (0.035 to 3.204) 4; ARR (Chronic Lymphycytic Leukaemia): 0.1%; NNT (Chronic Lymphycytic Leukaemia): −1363; Risk Ratio (95% CI) (Chronic Lymphycytic Leukaemia, case counts given): [3 drug vs 0 PBO]; ARR [1]: 0.0%; NNT [1]: −8362005; Risk Ratio (95% CI) [1]: 1.000 (0.141 to 7.097) −1; ARR [2]: 0.0%; NNT [2]: −8362005; Risk Ratio (95% CI) [2]: 1.000 (0.141 to 7.097) −1; Risk Ratio (95% CI) (Cognitive Decline: Cognitive disturbances): [No cases in study]; ARR (Colon Cancer): 0.1%; NNT (Colon Cancer): −1022; Risk Ratio (95% CI) (Colon Cancer): 2.000 (0.603 to 6.638) −3; ARR (Cough): −0.2%; NNT (Cough): 455; Risk Ratio (95% CI) (Cough): 0.526 (0.245 to 1.131) 3; Risk Ratio (95% CI) (Cystic Fibrosis): [No cases in study]; ARR (Decreased Appetite): 0.5%; NNT (Decreased Appetite): −215; Risk Ratio (95% CI) (Decreased Appetite): 2.584 (1.329 to 5.024) −4; ARR (Deep Venous Thromboembolism): −0.1%; NNT (Deep Venous Thromboembolism): 1364; Risk Ratio (95% CI) (Deep Venous Thromboembolism): 0.625 (0.205 to 1.909) 2; ARR [3]: 0.3%; NNT [3]: −340; Risk Ratio (95% CI) [3]: 1.106 (0.861 to 1.422) −1; ARR [4]: 0.3%; NNT [4]: −314; Risk Ratio (95% CI) [4]: 1.123 (0.867 to 1.454) −1; ARR [5]: 0.2%; NNT [5]: −408; Risk Ratio (95% CI) [5]: 1.097 (0.843 to 1.428) −1; ARR [6]: 0.0%; NNT [6]: −2044; Risk Ratio (95% CI) [6]: 3.001 (0.312 to 28.836) −4; ARR [7]: 0.0%; NNT [7]: −4088; Risk Ratio (95% CI) [7]: 2.000 (0.181 to 22.053) −3; ARR [8]: 0.0%; NNT [8]: −2044; Risk Ratio (95% CI) (Depression: Depressive disorders- Agitated depression, case counts given): [2 drug vs 0 PBO]; ARR [9]: 0.0%; NNT [9]: −3344802; Risk Ratio (95% CI) [9]: 1.000 (0.290 to 3.452) −1; ARR [10]: −0.0%; NNT [10]: 4091; Risk Ratio (95% CI) [10]: 0.500 (0.045 to 5.513) 3; ARR [11]: −0.0%; NNT [11]: 4096; Risk Ratio (95% CI) [11]: 0.857 (0.288 to 2.549) 1; ARR (Dermatitis psoriasiform): 0.0%; NNT (Dermatitis psoriasiform): −4089; Risk Ratio (95% CI) (Dermatitis psoriasiform, case counts given): [1 drug vs 0 PBO]; ARR (Dermatitis, allergic): −0.2%; NNT (Dermatitis, allergic): 454; Risk Ratio (95% CI) (Dermatitis, allergic): 0.250 (0.071 to 0.885) 4; ARR (Diabetic Nephropathy): −0.0%; NNT (Diabetic Nephropathy): 4100; Risk Ratio (95% CI) (Diabetic Nephropathy): 0.909 (0.387 to 2.139) 1; ARR (Dry Eye): 0.1%; NNT (Dry Eye): −1020; Risk Ratio (95% CI) (Dry Eye): 1.129 (0.698 to 1.828) −1; ARR (ESRD): −0.0%; NNT (ESRD): 4092; Risk Ratio (95% CI) (ESRD): 0.667 (0.111 to 3.989) 2; ARR (Embolism and Thrombosis): 0.1%; NNT (Embolism and Thrombosis): −1358; Risk Ratio (95% CI) (Embolism and Thrombosis): 1.064 (0.716 to 1.581) −1; ARR (Epilepsy): 0.0%; NNT (Epilepsy): −1.67e+07; Risk Ratio (95% CI) (Epilepsy): 1.000 (0.063 to 15.986)−1; ARR (Erectile dysfunction): −0.4%; NNT (Erectile dysfunction): 232; Risk Ratio (95% CI) (Erectile dysfunction): 0.784 (0.535 to 1.151) 2; ARR (Gastric Cancer): 0.0%; NNT (Gastric Cancer): −4088; Risk Ratio (95% CI) (Gastric Cancer): 2.000 (0.181 to 22.053) −3; ARR (Gastroesophageal reflux): −0.1%; NNT (Gastroesophageal reflux): 682; Risk Ratio (95% CI) (Gastroesophageal reflux): 0.333 (0.090 to 1.231) 4; ARR [12]: −0.1%; NNT [12]: 1023; Risk Ratio (95% CI) (Glomerulonephritis and Nephrotic Syndrome, case counts given): [0 drug vs 4 PBO]; ARR (Guttate psoriasis): 0.0%; NNT (Guttate psoriasis): −4089; Risk Ratio (95% CI) (Guttate psoriasis, case counts given): [1 drug vs 0 PBO]; ARR (Hepatitis C): 0.0%; NNT (Hepatitis C): −4089; Risk Ratio (95% CI) (Hepatitis C, case counts given): [1 drug vs 0 PBO]; Risk Ratio (95% CI) (IgA Nephropathy): [No cases in study]; ARR (Large intestine polyps): −0.2%; NNT (Large intestine polyps): 511; Risk Ratio (95% CI) (Large intestine polyps): 0.385 (0.137 to 1.078) 4; ARR (Leukaemia): 0.0%; NNT (Leukaemia): −1.67e+07; Risk Ratio (95% CI) (Leukaemia): 1.000 (0.063 to 15.986) −1; ARR [13]: −0.1%; NNT [13]: 1024; Risk Ratio (95% CI) [13]: 0.883 (0.541 to 1.439) 1; ARR (Liver Cancer): 0.0%; NNT (Liver Cancer): −4088; Risk Ratio (95% CI) (Liver Cancer): 2.000 (0.181 to 22.053) −3; ARR (Lung Cancer): −0.1%; NNT (Lung Cancer): 1023; Risk Ratio (95% CI) (Lung Cancer): 0.637 (0.247 to 1.640) 2; ARR (Lupus): −0.0%; NNT (Lupus): 4090; Risk Ratio (95% CI) (Lupus, case counts given): [0 drug vs 1 PBO]; ARR (Macular Degeneration): 0.1%; NNT (Macular Degeneration): −1361; Risk Ratio (95% CI) (Macular Degeneration): 1.188 (0.612 to 2.306) −1; Risk Ratio (95% CI) (Male Infertility): [No cases in study]; ARR (Migraine): 0.2%; NNT (Migraine): −584; Risk Ratio (95% CI) (Migraine): 2.751 (0.877 to 8.631) −4; Risk Ratio (95% CI) (Mucositis): [No cases in study]; ARR (Multiple Sclerosis): −0.0%; NNT (Multiple Sclerosis): 4090; Risk Ratio (95% CI) (Multiple Sclerosis, case counts given): [0 drug vs 1 PBO]; ARR (Muscle spasms): −1.1%; NNT (Muscle spasms): 95; Risk Ratio (95% CI) (Muscle spasms): 0.579 (0.421 to 0.795) 3; ARR (NASH): −0.1%; NNT (NASH): 818; Risk Ratio (95% CI) (NASH): 0.167 (0.020 to 1.384) 5; ARR (NASH for b/l NFS >0.675): −0.4%; NNT (NASH for b/l NFS >0.675): 273; Risk Ratio (95% CI) (NASH for b/l NFS >0.675): 0.252 (0.028 to 2.251) 4; ARR [14]: −0.5%; NNT [14]: 209; Risk Ratio (95% CI) [14]: 0.740 (0.342 to 1.601) 2; ARR (Nephrolithiasis): 0.1%; NNT (Nephrolithiasis): −1017; Risk Ratio (95% CI) (Nephrolithiasis): 1.050 (0.777 to 1.419) −1; ARR (Nephropathies): −0.2%; NNT (Nephropathies): 455; Risk Ratio (95% CI) (Nephropathies): 0.679 (0.380 to 1.213)2; ARR (Nephrotic Syndrome): −0.0%; NNT (Nephrotic Syndrome): 4090; Risk Ratio (95% CI) (Nephrotic Syndrome, case counts given): [0 drug vs 1 PBO]; Risk Ratio (95% CI) (PMS/Dysmenorrhea): [No cases in study]; ARR (PTSD): −0.0%; NNT (PTSD): 4092; Risk Ratio (95% CI) (PTSD): 0.667 (0.111 to 3.989) 2; ARR (Pancreatic Cancer): 0.1%; NNT (Pancreatic Cancer): −1022; Risk Ratio (95% CI) (Pancreatic Cancer): 5.001 (0.585 to 42.789) −5; ARR (Periodontitis): 0.0%; NNT (Periodontitis): −2044; Risk Ratio (95% CI) (Polycystic Ovarian Syndrome): [No cases in study]; ARR (Psoriasis): 0.3%; NNT (Psoriasis): −341; Risk Ratio (95% CI) (Psoriasis): 1.750 (0.949 to 3.230) −3; ARR (Psoriatic Conditions): 0.3%; NNT (Psoriatic Conditions): −292; Risk Ratio (95% CI) (Psoriatic Conditions): 1.875 (1.024 to 3.435) −3; ARR [15]: −0.0%; NNT [15]: 4091; Risk Ratio (95% CI) [15]: 0.500 (0.045 to 5.513) 3; Risk Ratio (95% CI) (Renal Transplant): [No cases in study]; ARR (Rheumatoid Arthritis): −0.1%; NNT (Rheumatoid Arthritis): 1363; Risk Ratio (95% CI) (Rheumatoid Arthritis, case counts given): [0 drug vs 3 PBO]; ARR (Schizophrenia NEC): −0.0%; NNT (Schizophrenia NEC): 4091; Risk Ratio (95% CI) (Schizophrenia NEC): 0.500 (0.045 to 5.513) 3; ARR (Sepsis): −0.1%; NNT (Sepsis): 682; Risk Ratio (95% CI) (Sepsis): 0.807 (0.477 to 1.364) 1; Risk Ratio (95% CI) (Sickle Cell Disease): [No cases in study]; ARR [16]: −0.0%; NNT [16]: 4090; Risk Ratio (95% CI) (Squamous Cell Carcinoma of Head and Neck, case counts given): [0 drug vs 1 PBO]; ARR [17]: −0.1%; NNT [17]: 682; Risk Ratio (95% CI) [17]: 0.143 (0.018 to 1.161) 5; ARR (Ulcerative Colitis): −0.0%; NNT (Ulcerative Colitis): 4090; Risk Ratio (95% CI) (Ulcerative Colitis, case counts given): [0 drug vs 1 PBO]; ARR (Wheezing): −0.3%; NNT (Wheezing): 315; Risk Ratio (95% CI) (Wheezing): 0.639 (0.379 to 1.076) 2; AR: Cough (AE table) [18]: 1,5%; ARR: Cough (AE table) [18]: 0.9%; NNT: Cough (AE table) [18]: −112; Risk Ratio (95% CI): Cough (AE table) [18]: 1.928 (0.692 to 5.373) −3; AR: Cough (AE table) [19]: 0.4%; ARR: Cough (AE table) [19]: −0.2%; NNT: Cough (AE table) [19]: 455; Risk Ratio (95% CI): Cough (AE table) [19]: 0.526 (0.245 to 1.131) 3; Severe SIRS: RR (vs placebo, p value 0.06): approximately 0.17; Systemic inflammatory response: risk ratio (RR) (vs placebo, p-value 0.0338): 0.143
